# Patent US20220324815A1, “2-PHENOXY-PYRIMIDINE DERIVATIVES AS HERBICIDAL COMPOUNDS” (SYNGENTA CROP PROTECTION AG, priority 2019, published 2022)
# Assays:
# Assay type in all cases: in vivo
# Conditions in all cases: 250 g/ha unless otherwise stated, evaluated after 13 days, five-point scale
# Solanum nigrum (SOLNI) [1] = experiment: Test 1 glasshouse herbicide test, pre-emergence application (Table B2)
# Procedure, shortened: (§1)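 Score is % phytotoxicity after 13 days, binned 1 (0–20%) to 5 (81–100%). Compound given at 250 g/ha unless stated, as acetone/water (50:50) spray with 0.5% Tween 20, one day post-sowing (pre-emergence) or after 8 days' growth (post-emergence); glasshouse at 24/16 °C day/night, 14 h light, 65% humidity.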
# Lolium perenne (LOLPE) [2] = experiment: as above
# Procedure, shortened: as §1
# [3] = test system: Echinochloa crus-galli (ECHCG); experiment: as above
# Procedure, shortened: as §1
# Setaria faberi (SETFA) [4] = experiment: as above
# Procedure, shortened: as §1
# [5] = test system: Amaranthus retoflexus (AMARE); experiment: as above
# Procedure, shortened: as §1
# [6] = test system: Ipomoea hederacea (IPOHE); experiment: as above
# Procedure, shortened: as §1
# Solanum nigrum (SOLNI) [7] = experiment: Test 1 glasshouse herbicide test, post-emergence application (Table B1)
# Procedure, shortened: as §1
# Lolium perenne (LOLPE) [8] = experiment: as above
# Procedure, shortened: as §1
# [9] = test system: Echinochloa crus-galli (ECHCG); experiment: as above
# Procedure, shortened: as §1
# Setaria faberi (SETFA) [10] = experiment: as above
# Procedure, shortened: as §1
# [11] = test system: Amaranthus retoflexus (AMARE); experiment: as above
# Procedure, shortened: as §1
# [12] = test system: Ipomoea hederacea (IPOHE); experiment: as above
# Procedure, shortened: as §1
Compound,"% phytotoxicity SOLNI, pre-emergence application (Solanum nigrum (SOLNI) [1])","% phytotoxicity LOLPE, pre-emergence application (Lolium perenne (LOLPE) [2])","% phytotoxicity ECHCG, pre-emergence application [3]","% phytotoxicity SETFA, pre-emergence application (Setaria faberi (SETFA) [4])","% phytotoxicity AMARE, pre-emergence application [5]","% phytotoxicity IPOHE, pre-emergence application [6]","% phytotoxicity SOLNI, post-emergence application (Solanum nigrum (SOLNI) [7])","% phytotoxicity LOLPE, post-emergence application (Lolium perenne (LOLPE) [8])","% phytotoxicity ECHCG, post-emergence application [9]","% phytotoxicity SETFA, post-emergence application (Setaria faberi (SETFA) [10])","% phytotoxicity AMARE, post-emergence application [11]","% phytotoxicity IPOHE, post-emergence application [12]"
N#Cc1cccc(Oc2ncc(Cl)cn2)c1SCCC(F)(F)F [Compound A13],5 (5=81 to 100%),5 (5=81 to 100%),5 (5=81 to 100%),5 (5=81 to 100%),5 (5=81 to 100%),4 (4=61 to 80%),5 (5=81 to 100%),5 (5=81 to 100%),5 (5=81 to 100%),5 (5=81 to 100%),5 (5=81 to 100%),4 (4=61 to 80%)
N#Cc1cccc(Oc2ncc(Cl)cn2)c1[S+]([O-])CCC(F)(F)F (stereo not drawn) [Compound A14],5 (5=81 to 100%),3 (3=41 to 60%),5 (5=81 to 100%),5 (5=81 to 100%),5 (5=81 to 100%),5 (5=81 to 100%),5 (5=81 to 100%),4 (4=61 to 80%),5 (5=81 to 100%),5 (5=81 to 100%),5 (5=81 to 100%),5 (5=81 to 100%)
N#Cc1cccc(Oc2ncc(Cl)cn2)c1S(=O)(=O)CCC(F)(F)F [Compound A15],5 (5=81 to 100%),5 (5=81 to 100%),5 (5=81 to 100%),5 (5=81 to 100%),5 (5=81 to 100%),5 (5=81 to 100%),5 (5=81 to 100%),4 (4=61 to 80%),5 (5=81 to 100%),5 (5=81 to 100%),5 (5=81 to 100%),5 (5=81 to 100%)
Clc1cnc(Oc2ccccc2SCc2ccccc2)nc1 [Compound A16],1 (1=0 to 20%),1 (1=0 to 20%),2 (2=21 to 40%),2 (2=21 to 40%),4 (4=61 to 80%),1 (1=0 to 20%),3 (3=41 to 60%),1 (1=0 to 20%),1 (1=0 to 20%),2 (2=21 to 40%),4 (4=61 to 80%),1 (1=0 to 20%)
O=S(=O)(CCCC(F)(F)F)c1c(Cl)cccc1Oc1ncc(Cl)cn1 [Compound A24],5 (5=81 to 100%),4 (4=61 to 80%),5 (5=81 to 100%),5 (5=81 to 100%),5 (5=81 to 100%),5 (5=81 to 100%),5 (5=81 to 100%),5 (5=81 to 100%),5 (5=81 to 100%),5 (5=81 to 100%),5 (5=81 to 100%),5 (5=81 to 100%)
FC(F)(F)CCCSc1c(Cl)cccc1Oc1ncc(Cl)cn1 [Compound A25],5 (5=81 to 100%),5 (5=81 to 100%),5 (5=81 to 100%),5 (5=81 to 100%),5 (5=81 to 100%),1 (1=0 to 20%),5 (5=81 to 100%),5 (5=81 to 100%),5 (5=81 to 100%),5 (5=81 to 100%),5 (5=81 to 100%),3 (3=41 to 60%)
[O-][S+](CCCC(F)(F)F)c1c(Cl)cccc1Oc1ncc(Cl)cn1 (stereo not drawn) [Compound A26],5 (5=81 to 100%),5 (5=81 to 100%),5 (5=81 to 100%),5 (5=81 to 100%),5 (5=81 to 100%),5 (5=81 to 100%),5 (5=81 to 100%),5 (5=81 to 100%),5 (5=81 to 100%),5 (5=81 to 100%),5 (5=81 to 100%),5 (5=81 to 100%)
Clc1ccc(CSc2ccccc2Oc2ncc(Cl)cn2)cc1 [Compound A27],2 (2=21 to 40%),1 (1=0 to 20%),4 (4=61 to 80%),4 (4=61 to 80%),5 (5=81 to 100%),1 (1=0 to 20%),3 (3=41 to 60%),1 (1=0 to 20%),2 (2=21 to 40%),2 (2=21 to 40%),5 (5=81 to 100%),2 (2=21 to 40%)
"N#Cc1cccc(Oc2ncc(Cl)cn2)c1SCCCC(F)(F)F [Compound A28, 3-(5-chloropyrimidin-2-yl)oxy-2-(4,4,4-trifluorobutylsulfanyl)benzonitrile]",5 (5=81 to 100%),5 (5=81 to 100%),5 (5=81 to 100%),5 (5=81 to 100%),5 (5=81 to 100%),5 (5=81 to 100%),5 (5=81 to 100%),5 (5=81 to 100%),5 (5=81 to 100%),5 (5=81 to 100%),5 (5=81 to 100%),5 (5=81 to 100%)
"N#Cc1cccc(Oc2ncc(Cl)cn2)c1[S+]([O-])CCCC(F)(F)F (stereo not drawn) [Compound A29, 3-(5-chloropyrimidin-2-yl)oxy-2-(4,4,4-trifluorobutylsulfinyl)benzonitrile]",5 (5=81 to 100%),5 (5=81 to 100%),5 (5=81 to 100%),5 (5=81 to 100%),5 (5=81 to 100%),5 (5=81 to 100%),5 (5=81 to 100%),5 (5=81 to 100%),5 (5=81 to 100%),5 (5=81 to 100%),5 (5=81 to 100%),5 (5=81 to 100%)
"N#Cc1cccc(Oc2ncc(Cl)cn2)c1S(=O)(=O)CCCC(F)(F)F [Compound A30, 3-(5-chloropyrimidin-2-yl)oxy-2-(4,4,4-trifluorobutylsulfonyl)benzonitrile]",5 (5=81 to 100%),5 (5=81 to 100%),5 (5=81 to 100%),5 (5=81 to 100%),5 (5=81 to 100%),5 (5=81 to 100%),5 (5=81 to 100%),5 (5=81 to 100%),5 (5=81 to 100%),5 (5=81 to 100%),5 (5=81 to 100%),4 (4=61 to 80%)
